How the values were obtained:
mouse Nph-OPCs = experiment: Cell proliferation as number of Hoechst-labeled nuclei; format: cell-based; details: 1 µM; n = 3 in triplicate wells; DMSO: 522 ± 126
Text: To determine the effects of ROCK inhibition on OPCs, we developed a high-content image morphological analysis of OPC differentiation using mouse embryonic neural progenitor-derived OPCs (Nph-OPCs). Neural progenitors grow as nonadherent spheroids known as neurospheres (Nph; [Chojnacki & Weiss, 2008]; [Tropepe et al., 1999]), which are considered to be a mixed population of neural stem cells and progenitors of the CNS ([Rao, 1999]; [Zhou & Chiang, 1998]). These cells have been previously used in multiple published studies for the generation of high-yield, high-purity cultures of OPCs from rodents ([Calaora et al., 2001]; [[…] al., 1997]; [Pedraza et al., 2008]). After 24 hr of plating on PDL-coated tissue culture plastic, Nph-OPCs were treated as indicated with differentiation stimuli and further incubated for 72 hr. […] Four images per well were analyzed using a neurite outgrowth module (Molecular Devices, Sunnyvale, CA). We quantified the number of branches and total outgrowth per cell (Figure 1). […] Additionally, nuclear staining by Hoechst allowed the accurate association of branches and processes to their corresponding cell bodies and permitted quantification of total cell numbers in each well. […]

rat mixed glial OPCs = experiment: Myelin protein expression in rat mixed glia-derived OPCs (qPCR, MBP ELISA); format: cell-based
Experimental: Rat postnatal OPCs were obtained as described elsewhere according to the original procedure of [McCarthy and […] (1980)]. In brief, postnatal Day 1 rat pups were sacrificed, and cerebral cortices dissected and mechanically dissociated in medium composed of DMEM, 10% heat inactivated fetal bovine serum, and 5 μg/ml penicillin/streptomycin. Dissociated cells were plated and maintained in 75-cm^2 culture flasks for 10 days, replenishing with fresh media at Days 3 and 7. At Day 10, the flasks were shaken on a heated (37°C) shaker for 1 hr at 110 rpm to separate loosely attached microglial cells. The medium was replenished, and the cells incubated for the remainder of the day. To dislodge OPCs from the astrocyte monolayer, flasks were shaken overnight (210 rpm, 37°C). […] Cells were then plated on PDL-coated tissue culture plastic and treated with test compounds. […] The results are presented as specific mRNA expression relative to either β-actin or β-tubulin, used as internal controls as indicated. OPCs isolated from rat mixed glial cultures are known to mature readily in the absence of mitogens achieving a premyelinating OL stage as determined by the expression of the cell surface sulfatide O4, and the myelin proteins MBP and PLP among others ([Armstrong, 1998]; [Barbarese & Pfeiffer, 1981]; [[…], 1999]; [Jung-[…], Schumacher, Robel, & Baulieu, 1996]; [Konola, Tyler, Yamamura, & Lees, 1991]). They also display marked morphological changes, progressing from bipolar to multibranched cells generating membranous structures, and probably represent a later developmental stage than Nph-OPC. In rat mixed glial OPCs, we measured myelin protein expression at the RNA level by qPCR and MBP production by ELISA (MBL International, Woburn, MA).

mouse-derived OPCs = experiment: Myelin protein mRNA expression in mouse-derived OPCs (qPCR); format: cell-based; details: mouse-derived OPCs exposed for 4 days
Experimental: Neurospheres (Nph) were prepared from embryos at 14.5 days of gestation obtained from timed pregnant females of C57/Bl6 mice, as previously described ([Kornblum, Yanni, Easterday, & Seroogy, 2000]; [Pedraza, Monk, Lei, Hao, & Macklin, 2008]). In brief, after separation of meninges and cerebellum, cerebrum tissue was mechanically triturated with a 1-ml micropipette until total tissue dissociation was achieved, filtered through a 70 -µm cell strainer (Fisher Scientific, Pittsburgh, PA), and plated in 25-cm^2 plastic culture flasks (2 brains/flask). Nph proliferation media (NPM) consisted of Dulbecco’s Modified Eagle Medium (DMEM)/F12, B27 neuronal supplement (Gibco, Baltimore, MD) and 10 ng/ml […] (EGF; Sigma, St. Louis, MO). After 48 to 72 hr, floating Nphs were passaged at a 1 : 1 ratio into 75-cm^2 culture flasks. After a further 48 to 72 hr, they were passaged into 150-cm^2 flasks. […]
Total RNA was isolated from single-cell cultures or tissue explants using Tri-Zol reagent (Gibco). cDNA was generated from 1 to 3 µg of total RNA by Retrotranscriptase II (Gibco) reaction, and the selected transcripts were detected and amplified by quantitative RT-PCR in an Applied Biosystems (Grand Island, NY) 7500 fast qPCR machine, following the manufacturer’s instructions. […]

[1] = tested on: cerebellar organotypic cultures; experiment: Remyelination in lysolecithin-demyelinated cerebellar slices (qPCR of MBP, PLP, MOG); format: cell-based, rat; details: 10 µM, 10-day incubation post-lysolecithin, vs 0.1% DMSO
Experimental: In brief, after careful dissection to keep the tissue intact, cerebella of postnatal Days 4 to7 wild-type mouse pups were sectioned at 400 -µm thickness using a Leica VT1000S vibratome. […] When the slices were firmly attached, fresh medium was added to cover the tissue, and the cultures were maintained under these conditions for 4 days. […] Treatments with compounds were initiated at this point, and the cultures maintained for 4 to 10 additional days. Demyelination–remyelination was assessed by real-time polymerase chain reaction (PCR).

SMILES: C[C@@H](N)[C@H]1CC[C@H](C(=O)Nc2ccncc2)CC1.Cl.Cl [Y0503, trans-4-[(1 R)-1-aminoethyl]-N-4-pyridinylcyclohexanecarboxamide dihydrochloride]
- Number of Hoechst-labeled nuclei (mouse Nph-OPCs): 625 ± 88 cells/well
- Expression of MBP, PLP, and MOG mRNAs (qPCR) (rat mixed glial OPCs; 3 days maturation +4 days treatment, concentrations as low as 0.1 µM): significant increase
- MBP at the protein level (ELISA) (rat mixed glial OPCs; treatments at 24 hr and 72 hr after plating): increased expression
- MBP and PLP mRNA (mouse-derived OPCs): increased significantly
- Expression of MBP, PLP, MOG mRNAs in demyelinated cerebellar slices (qPCR) [1]: significant increase

— article PMC4189421, “Induction of Oligodendrocyte Differentiation and In Vitro Myelination by Inhibition of Rho-Associated Kinase” (ASN NEURO, 2014)
